Measurements from patent US9650336B2, “Mono-fluoro beta-secretase inhibitors” (ASTRAZENECA AB, priority 2011, dated 2017).

Columns and labels:
[1] = target: T1, human β-secretase (sBACE-Fc, soluble part AA 1-AA 460) (Homo sapiens (Human), UniProt P56817); test: Diluted TR-FRET assay; type: biochemical; conditions: 50 times less enzyme, 6.5 h reaction time at r.t. in the dark; read-out: IC50 from the diluted FRET assay
Description: (§1) The β-secretase enzyme used in the TR-FRET is prepared as follows:
(§2) The cDNA for the soluble part of the human 13-Secretase (AA 1-AA 460) was cloned using the ASP2-Fc10-1-IRES-GFP-neoK mammalian expression vector. The gene was fused to the Fc domain of IgG1 (affinity tag) and stably cloned into HEK 293 cells.
[…] The robotic systems Biomek FX and Velocity 11 were used for all liquid handling and the enzyme and substrate solutions were kept on ice until they were placed in the robotic system. Enzyme (9 μL) was added to the plate then 1 μL of compound in dimethylsulphoxide was added, mixed and pre-incubated for 10 minutes. […] The reaction was stopped with the addition of Stop solution (7 μL, NaAcetate, pH 9). The fluorescence of the product was measured on a Victor II plate reader with an excitation wavelength of 340 nm and an emission wavelength of 615 nm. The assay was performed in a Costar 384 well round bottom, low volume, non-binding surface plate (Corning #3676). […] The dimethylsulphoxide control, instead of test compound, defined the 100% activity level and 0% activity was defined by wells lacking enzyme (replaced with reaction buffer).

[2] = test system: sAPPβ release in SH-SY5Y cells; test: sAPPβ release assay; type: cell-based; conditions: Homo sapiens, 17 h incubation
Description: SH-SY5Y cells were cultured in DMEM/F-12 with Glutamax, 10% FCS and 1% non-essential amino acids and cryopreserved and stored at −140° C. at a concentration of 7.5-9.5×10^6 cells per vial. Thaw cells and seed at a conc. of around 10000 cells/well in DMEM/F-12 with Glutamax, 10% FCS and 1% non-essential amino acids to a 384-well tissue culture treated plate, […] cell susp/well. The cell plates were then incubated for 7-24 h at 37° C., 5% CO2. The cell medium was removed, followed by addition of 30 μL compound diluted in DMEM/F-12 with Glutamax, 10% FCS, 1% non-essential amino acids and 1% PeSt to a final conc. of 1% DMSO. The compounds were incubated with the cells for 17 h (overnight) at 37° C., 5% CO2. Meso Scale Discovery (MSD) plates were used for the detection of sAPPβ release. MSD sAPPβ plates were blocked in 1% BSA in Tris wash buffer (40 μL/well) for 1 h on shake at r.t. and washed 1 time in Tris wash buffer (40 μL/well). 20 μL of medium was transferred to the pre-blocked and washed MSD sAPPβ microplates, and the cell plates were further used in an ATP assay to measure cytotoxicity. The MSD plates were incubated with shaking at r.t. for 2 h and the media discarded. 10 μL detection antibody was added (1 nM) per well followed by incubation with shaking at r.t. for 2 h and then discarded. 40 μL Read Buffer was added per well and the plates were read in a SECTOR Imager.

[3] = target: T1, human β-secretase (sBACE-Fc, soluble part AA 1-AA 460); test: TR-FRET assay; type: biochemical; conditions: TruPoint BACE1 substrate 100 nM, pH 4.5, 15 min at r.t.
Description: as §1, §2
The enzyme (truncated form) was diluted to 6 μg/mL (stock 1.3 mg/mL) and the TruPoint BACE1 Substrate to 200 nM (stock 120 μM) in reaction buffer (NaAcetate, chaps, triton x-100, EDTA pH4.5). The robotic systems Biomek FX and Velocity 11 were used for all liquid handling and the enzyme and substrate solutions were kept on ice until they were placed in the robotic system. Enzyme (9 μL) was added to the plate then 1 μL of compound in dimethylsulphoxide was added, mixed and pre-incubated for 10 minutes. Substrate (10 μL) was then added, mixed and the reaction proceeded for 15 minutes at r.t. The reaction was stopped with the addition of Stop solution (7 μL, NaAcetate, pH 9). The fluorescence of the product was measured on a Victor II plate reader with an excitation wavelength of 340 nm and an emission wavelength of 615 nm. The assay was performed in a Costar 384 well round bottom, low volume, non-binding surface plate (Corning #3676). […] The dimethylsulphoxide control, instead of test compound, defined the 100% activity level and 0% activity was defined by wells lacking enzyme (replaced with reaction buffer).

T1 sequence (P56817 22-460): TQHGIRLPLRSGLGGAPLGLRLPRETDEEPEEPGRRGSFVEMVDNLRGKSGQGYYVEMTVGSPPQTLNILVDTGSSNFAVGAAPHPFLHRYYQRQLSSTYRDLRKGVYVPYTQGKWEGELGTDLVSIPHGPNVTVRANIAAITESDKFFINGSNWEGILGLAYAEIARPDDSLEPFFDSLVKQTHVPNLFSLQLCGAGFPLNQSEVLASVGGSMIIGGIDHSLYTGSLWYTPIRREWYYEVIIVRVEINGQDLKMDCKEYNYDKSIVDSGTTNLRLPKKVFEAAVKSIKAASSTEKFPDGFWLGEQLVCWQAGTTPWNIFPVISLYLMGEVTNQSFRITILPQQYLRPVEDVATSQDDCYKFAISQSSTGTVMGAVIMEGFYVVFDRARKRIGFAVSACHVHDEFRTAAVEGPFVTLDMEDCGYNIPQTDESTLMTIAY

SMILES	IC50 [1]	IC50 [2]	IC50 [3]
CO[C@H]1CC[C@]2(CC1)Cc1ccc(-c3cncnc3)cc1C21C=C(F)C(N)=N1 (stereo partly drawn) [Example 1, (1r,4r)-4″-fluoro-4-methoxy-6′-(pyrimidin-5-yl)-3′H-dispiro[cyclohexane-1,2′-indene-1,2″-pyrrol]-5″amine]	22 nM	1.1 nM	
CO[C@H]1CC[C@@]2(CC1)Cc1ccc(-c3cncnc3)cc1C21C=C(F)C(N)=N1 (stereo partly drawn) [Example 2, (1s,4s)-4″-Fluoro-4-methoxy-6′-(pyrimidin-5-yl)-3′H-dispiro[cyclohexane-1,2′-indene-1,2″-pyrrol]-5″amine]		56 nM	1970 nM
CC#Cc1cncc(-c2ccc3c(c2)C2(C=C(F)C(N)=N2)[C@]2(CC[C@H](OC)CC2)C3)c1 (stereo partly drawn) [Example 3, (1r,4r)-4″-Fluoro-4-methoxy-6′-[5-(prop-1-yn-1-yl)pyridin-3-yl]-3′H-dispiro[cyclohexane-1,2′-indene-1′,2″-pyrrol]-5″amine]		0.031 nM	18 nM
CC#Cc1cncc(-c2ccc3c(c2)C2(C=C(F)C(N)=N2)[C@]2(CC[C@@H](OC)CC2)C3)c1 (stereo partly drawn) [Example 4, (1s,4s)-4″-Fluoro-4-methoxy-6′-[5-(prop-1-yn-1-yl)pyridin-3-yl]-3′H-dispiro[cyclohexane-1,2′-indene-1′,2″-pyrrol]-5″amine]		1.1 nM	258 nM

Further lines, results first:

IC50 [1]	IC50 [2]	IC50 [3]	SMILES
	3 nM	71 nM	CO[C@H]1CC[C@]2(CC1)Oc1ccc(-c3cc(F)cc(C#N)c3)cc1C21C=C(F)C(N)=N1 (stereo partly drawn) [Example 5, 3-[(1s,4s)-5″-Amino-4″-fluoro-4-methoxydispiro[cyclohexane-1,2′-[1]benzofuran-3′,2″-pyrrol]-5′-yl]-5-fluorobenzonitrile]
	19 nM	770 nM	CC1(C)COc2ccc(-c3cncnc3)cc2C12C=C(F)C(N)=N2 (stereo not drawn) [Example 6, 4′-Fluoro-3,3-dimethyl-6-(pyrimidin-5-yl)spiro[chroman-4,2′-pyrrol]-5′-amine]
	30 nM	770 nM	CC1(C)COc2ccc(-c3cncc(F)c3)cc2C12C=C(F)C(N)=N2 (stereo not drawn) [Example 7, 4′-Fluoro-6-(5-fluoropyridin-3-yl)-3,3-dimethylspiro[chroman-4,2′-pyrrol]-5′-amine]
	256 nM	640 nM	CC1(C)COc2ccc(-c3cc(F)cc(F)c3)cc2C12C=C(F)C(N)=N2 (stereo not drawn) [Example 8, 6-(3,5-Difluorophenyl)-4′-fluoro-3,3-dimethylspiro[chroman-4,2′-pyrrol]-5′-amine]
	168 nM	3790 nM	CC1(C)Cc2ccc(-c3cncnc3)cc2C12C=C(F)C(N)=N2 (stereo not drawn) [Example 9, 4′-fluoro-2,2-dimethyl-6-(pyrimidin-5-yl)-2,3-dihydrospiro[indene-1,2′-pyrrol]-5′-amine]
